Assay results: patent US6060462A, “Electrophilic peptide analogs as inhibitors of trypsin-like enzymes” (DuPont Pharmaceuticals Company, priority 1997, dated 2000)
Counter-ions that a name gives are not always drawn. Like-named read-outs stand apart in the source and are kept apart here.

How the values were obtained:
Type in all cases: biochemical
human factor Xa = target: T1, human factor Xa (Homo sapiens, UniProt P00742); test: Inhibition of Factor Xa hydrolysis of chromogenic substrate S2222 (Ki); conditions: purified human factor Xa, 0.10 M sodium phosphate buffer; for Ki values for inhibition of Serine Proteases: Factor Xa: pH 7.5
T1 construct: 0.2-0.5 nM human thrombin or human factor Xa; purchased Enzyme Research Laboratories, South Bend, Ind
Protocol: (§1) The effectiveness of compounds of the present invention as inhibitors of blood coagulation proteases was determined using purified human proteases and synthetic substrates following procedures similar to those described in Kettner et al. (1990).
(§2) For these assays, the rate of enzymatic (thrombin, Factor Xa, and Factor VIIa) hydrolysis of chromogenic substrates (S2238 (H-D-Phe-Pip-Arg-pNA), S2222, and S2288, respectively; Kabi Pharmacia, Franklin, Ohio) was measured both in the absence and presence of compounds of the present invention. […] A decrease in the rate of absorbance change at 405 nm in the presence of inhibitor is indicative of enzyme inhibition. The results of this assay are expressed as inhibitory constant, Ki.
(§3) Thrombin and Xa determinations were made in 0.10 M sodium phosphate buffer, pH 7.5, containing 0.20 M NaCl, and 0.5% PEG 8000. VIIa determinations were made in 0.05 M tris buffer, pH 7.6, containing 0.10 M NaCl, 4 mM CaCl2, and 0.1% bovine serum albumin.
(§4) Reactions were allowed to go for 30 minutes and the velocities (rate of absorbance change vs time) were measured in the time frame of 25-30 minutes. The following relationship was used to calculate Ki values. [formula] where: vo is the velocity of the control in the absence of inhibitor;
(§5) vs is the velocity in the presence of inhibitor;
(§6) I is the concentration of inhibitor;
(§7) Ki is the dissociation constant of the enzyme: inhibitor complex;
(§8) S is the concentration of substrate;
(§9) Km is the Michaelis constant.

human factor VIIa = target: T2, human factor VIIa (Homo sapiens, UniProt P08709); test: Inhibition of Factor VIIa hydrolysis of chromogenic substrate S2288 (Ki); conditions: purified human factor VIIa, 0.05 M tris buffer; for Ki: pH 7.6, read-out: Ki values for inhibition of Serine Proteases: Factor VIIa; for Ki values for inhibition of Serine Proteases: Factor VIIa: pH 7.6
T2 construct: 50 nM human factor VIIa (BiosPacific, Emeryville, Calif.); purchased BiosPacific, Emeryville, Calif
T2 sequence (P08709 213-466 limits assumed): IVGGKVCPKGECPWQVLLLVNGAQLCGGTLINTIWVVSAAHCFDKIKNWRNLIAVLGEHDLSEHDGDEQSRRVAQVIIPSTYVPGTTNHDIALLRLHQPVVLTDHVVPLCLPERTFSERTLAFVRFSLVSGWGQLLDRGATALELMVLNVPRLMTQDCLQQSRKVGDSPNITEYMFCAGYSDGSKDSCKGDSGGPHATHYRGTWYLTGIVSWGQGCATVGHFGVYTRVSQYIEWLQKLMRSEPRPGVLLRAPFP
T2 sequence (P08709 61-212 partner limits assumed): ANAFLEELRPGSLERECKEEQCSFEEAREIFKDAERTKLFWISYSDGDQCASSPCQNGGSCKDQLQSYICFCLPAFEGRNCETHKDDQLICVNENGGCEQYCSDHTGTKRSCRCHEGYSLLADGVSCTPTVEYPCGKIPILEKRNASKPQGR
Protocol: as §1, §2, §3, §4, §5, §6, §7, §8, §9

human thrombin = human thrombin (Homo sapiens, UniProt P00734); test: Inhibition of thrombin hydrolysis of chromogenic substrate S2238 (Ki); design: 0.2-0.5 nM human thrombin or human factor Xa; purchased Enzyme Research Laboratories, South Bend, Ind; conditions: purified human thrombin, 0.10 M sodium phosphate buffer, pH 7.5, read-out: Ki values for inhibition of Serine Proteases: Trombin
Protocol: as §1, §2, §3, §4, §5, §6, §7, §8, §9

[1] = pH 7.5, read-out: Ki values for inhibition of Serine Proteases: Factor Xa

T1 sequence (P00742 235-488 limits assumed): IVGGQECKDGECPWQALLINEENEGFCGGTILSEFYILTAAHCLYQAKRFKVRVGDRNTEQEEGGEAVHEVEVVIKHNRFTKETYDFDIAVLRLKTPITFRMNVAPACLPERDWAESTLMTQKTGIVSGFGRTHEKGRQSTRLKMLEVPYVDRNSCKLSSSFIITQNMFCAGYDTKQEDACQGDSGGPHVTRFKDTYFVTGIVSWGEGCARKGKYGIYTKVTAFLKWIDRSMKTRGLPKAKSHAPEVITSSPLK
T1 sequence (P00742 41-179 partner limits assumed): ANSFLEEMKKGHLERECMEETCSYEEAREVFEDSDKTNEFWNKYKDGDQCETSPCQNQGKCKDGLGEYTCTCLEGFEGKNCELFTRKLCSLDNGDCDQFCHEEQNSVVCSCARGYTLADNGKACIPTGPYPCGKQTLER

| Compound | Ki (human factor Xa; [1]) | Ki (human factor VIIa) | Ki (human thrombin) | Ki (human factor Xa; pH 7.5, HCl, read-out: Ki values for inhibition of Serine Proteases: Factor Xa) | Ki values for inhibition of Serine Proteases: Factor Xa (human factor Xa) | Ki values for inhibition of Serine Proteases: Factor VIIa (human factor VIIa) |
| --- | --- | --- | --- | --- | --- | --- |
| CC1(C)C2CC3OB(C(CCCNC(=N)N)NC(=O)CN(CCc4ccccc4C4CC4)C(=O)CCc4ccccc4)OC3(C)C1C2 (stereo not drawn) [Example 56.1.2, Hydrocinnamoyl-[N-(2-(Cyclopropyl)-Phenethyl)--Gly]-boroArg-C10H16 HCl] | < 500 nM | < 500 nM | < 500 nM | – | – | – |
| Cc1cc(C)cc(C(C)(C)CN(CC(=O)NC(CCCN=C(N)N)B2OC3CC4CC(C4(C)C)C3(C)O2)C(=O)CCc2ccccc2)c1 (stereo not drawn) [Example 56.3.3, Hydrocinnamoyl-{N-[2,2-(Dimethyl)-2-(3,5-dimethylphenyl)-ethyl]-Gly}-boroArg-C10H16 HCl] | < 500 nM | < 500 nM | < 500 nM | – | – | – |
| CC(C)(CN(CC(=O)NC(CCCCN)B(O)O)C(=O)CCc1ccccc1)c1ccccc1 (stereo not drawn) [Example 59.1.1, Hydrocinnamoyl-[N-(2,2-(Dimethyl)-Phenethyl)-Gly]-boroLys--OH HCl] | – | < 500 nM | < 500 nM | < 50000 nM | – | – |
| CC(C)(CN(CC(=O)NC(CCCN)B1OC2CC3CC(C3(C)C)C2(C)O1)C(=O)CCc1ccccc1)c1ccccc1 (stereo not drawn) [Example 60.3.3, Hydrocinnamoyl-[N-(2,2-(Dimethyl)-Phenethyl)-Gly]-boroOrn-C10H16 HCl] | < 50000 nM | < 50000 nM | < 500 nM | – | – | – |
| Cc1cc(C)cc(CCN(CC(=O)NC(CCCN)B2OC3CC4CC(C4(C)C)C3(C)O2)C(=O)CCc2ccccc2)c1 (stereo not drawn) [Example 60.4.1, Hydrocinnamoyl-{N-[2-(3,5-dimethylphenyl)-ethyl]-Gly}-boroOrn-C10H16 HCl] | < 50000 nM | < 50000 nM | < 500 nM | – | – | – |
| CN(CC(=O)NC(CO)CCCCN)C(=O)CCc1ccccc1 (stereo not drawn) [Example 61.3.1, Hydrocinnamoyl-Sar-NHCH(CH20H)(CH2)4--NH2] | – | – | < 50000 nM | – | Inactive | Inactive |
| CN(CC(=O)NC(CO)CCCCNC(=O)OCc1ccccc1)C(=O)CCc1ccccc1 (stereo not drawn) [Example 61.3.2, Hydrocinnamoyl-Sar-NHCH(CH20H)(CH2)4--NH(Z)] | – | – | < 50000 nM | – | Inactive | Inactive |
| CN(CC(=O)NC(CCCBr)B1OC2CC3CC(C3(C)C)C2(C)O1)C(=O)c1ccccc1Sc1ccccc1C#N (stereo not drawn) [Example 62.1.1] | < 50000 nM | < 50000 nM | < 50000 nM | – | – | – |
| CN(CC(=O)NC(CCCCBr)B1OC2CC3CC(C3(C)C)C2(C)O1)C(=O)c1ccccc1Sc1ccccc1C#N (stereo not drawn) [Example 62.1.2] | < 50000 nM | < 50000 nM | < 50000 nM | – | – | – |
| CN(CC(=O)NC(CCCSC(=N)N)B1OC2CC3CC(C3(C)C)C2(C)O1)C(=O)c1ccccc1Sc1ccccc1C#N (stereo not drawn) [Example 62.1.3, (2-(2-Cyano)-Thiophenyl)-Benzoyl-Sar-boroIrg-C10H16 HBr] | < 500 nM | < 500 nM | < 500 nM | – | – | – |
| CN(CC(=O)NC(CCCN=[N+]=[N-])B1OC2CC3CC(C3(C)C)C2(C)O1)C(=O)c1ccccc1Sc1ccccc1C#N (stereo not drawn) [Example 62.2.1] | < 50000 nM | < 50000 nM | < 50000 nM | – | – | – |
| CN(CC(=O)NC(CCCCSC(=N)N)B1OC2CC3CC(C3(C)C)C2(C)O1)C(=O)c1ccccc1Sc1ccccc1C#N (stereo not drawn) [Example 62.2.2, (2-(2-Cyano)-Thiophenyl)-Benzoyl-Sar-borohomoIrg-C10H16 HBr] | < 500 nM | < 50000 nM | < 500 nM | – | – | – |
| CN(CC(=O)NC(CCCCN=[N+]=[N-])B1OC2CC3CC(C3(C)C)C2(C)O1)C(=O)c1ccccc1Sc1ccccc1C#N (stereo not drawn) [Example 62.2.3] | < 50000 nM | < 50000 nM | < 50000 nM | – | – | – |
| CN(CC(=O)NC(CCCN)B1OC2CC3CC(C3(C)C)C2(C)O1)C(=O)c1ccccc1Sc1ccccc1C#N (stereo not drawn) [Example 62.3.1, (2-(2-Cyano)-Thiophenyl)-Benzoyl-Sar-boroOrn-C10H16 HCl] | < 50000 nM | < 50000 nM | < 50000 nM | – | – | – |
| CN(CC(=O)NC(CCCCNC(=N)N)B1OC2CC3CC(C3(C)C)C2(C)O1)C(=O)c1ccccc1Sc1ccccc1C#N (stereo not drawn) [Example 62.3.2, (2-(2-Cyano)-Thiophenyl)-Benzoyl-Sar-borohomoArg-C10H16 HCl] | < 500 nM | < 50000 nM | < 500 nM | – | – | – |
| CN(CC(=O)NC(CCCNC(=N)N)B1OC2CC3CC(C3(C)C)C2(C)O1)C(=O)c1ccccc1Sc1ccccc1C#N (stereo not drawn) [Example 62.3.3, 2-(2-cyanothiophenyl)-benzoyl-Sar-BoroArg C10 H16.HCl] | < 500 nM | < 500 nM | < 500 nM | – | – | – |
| CN(CC(=O)NC(CCCSC(=N)N)B1OC2CC3CC(C3(C)C)C2(C)O1)C(=O)c1ccccc1Sc1ccccc1 (stereo not drawn) [Example 63.1.3, 2-(Thiophenyl)-Benzoyl-Sar-boroIrg-C10H16 HBr] | < 500 nM | < 50000 nM | < 500 nM | – | – | – |
| CN(CC(=O)NC(CCCN)B1OC2CC3CC(C3(C)C)C2(C)O1)C(=O)c1ccccc1Sc1ccccc1.Cl (stereo not drawn) [Example 63.3.1, 2-(Thiophenyl)-Benzoyl-Sar-boroOrn-C10H16 HCl] | < 50000 nM | – | < 500 nM | – | – | inactive |
| CC(=O)N(CC(=O)NC(CCCCN)B1OC2CC3CC(C3(C)C)C2(C)O1)Cc1ccccc1Cc1ccccc1 (stereo not drawn) [Example 64.1.2, Acetyl-Gly[N-(2-(Benzyl)-Benzyl)]-boroLys-C10H16 HCl] | < 50000 nM | < 500 nM | < 500 nM | – | – | – |
| CN(CC(=O)NC(CCCCN)B1OC2CC3CC(C3(C)C)C2(C)O1)C(=O)c1ccccc1Cc1cccc(Cl)c1 (stereo not drawn) [Example 64.2.3, 2-(3-chlorobenzyl)-benzoyl-Sar-Borolys C10 H16.HCl] | < 500 nM | < 500 nM | < 500 nM | – | – | – |
| CC(C)(CC(=O)O)CC(=O)N(CCc1ccccc1)CC(=O)NC(CCCCN)B1OC2CC3CC(C3(C)C)C2(C)O1 (stereo not drawn) [Example 67.1.2, Glutaryl(3,3-Dimethyl)-[N-(Phenethyl)-Gly]-boroLys-C10H16] | < 50000 nM | < 50000 nM | < 500 nM | – | – | – |
| COC(=O)CC(C)(C)CC(=O)N(CCc1ccccc1)CC(=O)NC(CCCCN)B1OC2CC3CC(C3(C)C)C2(C)O1 (stereo not drawn) [Example 67.1.3, Methyl Glutaryl(3,3-Dimethyl)-[N-(Phenethyl)-Gly]-boroLys-C10H16 HCl] | < 500 nM | < 50000 nM | < 500 nM | – | – | – |
| CC(C)(C)OC(=O)NC(CCC(=O)O)C(=O)N(CCc1ccccc1)CC(=O)NC(CCCCN)B(O)O (stereo not drawn) [Example 68.2.1, Boc-Glu-[N-(Phenethyl)-Gly]-boroLys--OH] | < 50000 nM | < 50000 nM | < 500 nM | – | – | – |
| NCCCCC(NC(=O)CN(CCc1ccccc1)C(=O)CCC(=O)O)B(O)O (stereo not drawn) [Example 68.3.1, Succinyl-[N-(Phenethyl)-Gly]-boroLys--OH] | < 50000 nM | < 50000 nM | < 500 nM | – | – | – |
| COC(=O)CCCC(=O)N(CCc1ccccc1)CC(=O)NC(CCCCN)B1OC2CC3CC(C3(C)C)C2(C)O1 (stereo not drawn) [Example 69.4.1, Methyl Glutaryl-[N-(Phenethyl)-Gly]-boroLys-C10H16 HCl] | < 50000 nM | < 50000 nM | < 500 nM | – | – | – |
| Cc1cccc(CCN(CC(=O)NC(CCCCN)B2OC3CC4CC(C4(C)C)C3(C)O2)C(=O)CCC(=O)O)c1 (stereo not drawn) [Example 73.1.2, Succinyl-[N-(3-(Methyl)-Phenethyl)-Gly]-boroLys-C10H16 HCl] | < 500 nM | < 50000 nM | < 500 nM | – | – | – |
| (2-(2-Cyano)-Thiophenyl)-Benzoyl-Sar-boroLys(CH=NH)-C10H16 HCl [Example 62.4.2] | < 500 nM | < 50000 nM | < 500 nM | – | – | – |
| (2-(2-Cyano)-Thiophenyl)-Benzoyl-Sar-boroOrn(CH=NH)-C10H16 HCl [Example 62.4.1] | < 500 nM | < 500 nM | < 500 nM | – | – | – |
